Experimental data taken from patent publication US6350773B1, “Therapeutic combinations of (S)-2-(benzylamino-methyl)-2,3,8,9,-tetrahydro 7H-1,4-dioxino{2,3-e}indol-8-one and neuroleptics for the treatment or prevention of psychotic disorders” (American Home Products Corporation, priority 1999, dated 2002).

Experiments:
[1] = test system: d-amphetamine induced hyperactivity in mice; assay: Antagonism of d-amphetamine-induced hyperlocomotion in mice; format: in vivo; details: d-amphetamine 2.5 mg/kg i.p.
Procedure: FIG. 3 is a schematic representation of the effect of (S)-2-(Benzylamino-methyl)-2,3,8,9-tetrahydro-7H-1,4-dioxino[2,3-e]indol-8-one (agent) to reverse d-amphetamine induced hyperactivity in mice. The data are expressed as a percentage of the activity level (horizontal activity counts) observed in mice treated with d-amphetamine alone for eight doses ranging from 0.0001 to 1 mg/kg s.c. of agent. The data are presented as means±SEM.
The ability to antagonize amphetamine-induced hyperlocomotion was tested according to a modified version of the methods of Riffee and Wilcox, Psychopharmacology, 1985, 85:97-101. Mice (25-30 g) were transported from the colony room to the experimental room and held there for the duration of the experiment. […] Control groups, assessed simultaneously with drug-treated groups, received vehicle at equal volumes (10 ml/kg). […] Activity was monitored for 30 minutes with lights on using Omnitech Digiscan® (Columbus, Ohio) infrared monitors. Each infrared beam break was counted by the automated system and totaled at 10 minute intervals. […]
FIG. 3 is a schematic representation of the effect of (S)-2(Benzylamino-methyl)-2,3,8,9-tetrahydro-7H-1,4-dioxino[2,3-e]indol-8-one (agent) to reverse d-amphetamine induced hyperactivity in mice. The data are expressed as a percentage of the activity level observed in mice treated with d-amphetamine alone and are presented as means±SEM.

catalepsy in rats = assay: Cataleptogenic potential in rats (no haloperidol); format: in vivo; details: 0.003 to 3 mg/kg s.c., 60 min post dosing, similar at the other time points
[2] = test system: haloperidol-induced catalepsy in rats; assay: Reversal of haloperidol-induced catalepsy in rats; format: in vivo, Sprague-Dawley rats; details: haloperidol 3 mg/kg i.p.
Procedure: FIG. 1 is a schematic representation of the effect of (S)-2-(benzylaminomethyl)-2,3,8,9-tetrahydro-7H-1,4-dioxino[2,3-e]indol-8-one (agent) on haloperidol-induced catalepsy in rats at 60 minutes after drug treatment, the time point of greatest reversal as measured by seconds spent in catelepsy over a dose range of 0.003 to 3 mg/kg s.c. of agent. The data are means±SEM.
Tests for reversal of haloperidol-induced catalepsy in rats were conducted according to a variation of the methods of Svensson et al., Neuropharmacology, 1993, 32:1037-1045. Rats (200-250 g) were transported from the colony room to the experimental room and held there for the duration of the experiment. Haloperidol, dissolved in 0.25% Tween 80®, was administered to all animals at a dose of 3 mg/kg i.p. Sixty minutes later, (S)-2-(benzylamino-methyl)-2,3,8,9-tetrahydro-7H-1,4-dioxino[2,3-e]indol-8-one, also dissolved in 0.25% Tween 80®, was administered s.c. at 4 dose levels to 6 male Sprague-Dawley rats per dose level. A control group, assessed simultaneously with (S)-2-(benzylamino-methyl)-2,3,8,9-tetrahydro-7H-1,4-dioxino[2,3-e]indol-8-one treated groups, received a vehicle (VEH) injection of 0.25% Tween 80® at equal volumes (1 ml/kg). Animals were assessed for catalepsy at 30, 60, 90 and 120 minutes after drug administration by placing the animal's forepaws on a wooden cube (8×8×8 cm). The time that the animal remained with at least one of the forepaws on the cube was measured (maximum=60 sec). The righting reflex was then tested and used to discard sedated subjects. Data were analyzed using a two-factor analysis of variance with one repeated measure. A subsequent least significant difference from control test (p<0.05) was used to determine the minimal effective dose (MED) for reversing haloperidol-induced catalepsy and to determine time of onset. A trend test was then used to determine at which time points (if any) there was a dose-related effect. […]

Q: Which ED50 ([1]; Mus musculus, agent s.c., horizontal activity counts 10-20 min, read-out: ED50 (dose producing 50% reduction in activity), d-amphetamine-induced hyperactivity) does the source give for `O=C1Cc2c(ccc3c2O[C@@H](CNCc2ccccc2)CO3)N1` [(S)-2-(benzylamino-methyl)-2,3,8,9-tetrahydro-7H-1,4-dioxino[2,3-e]indol-8-one] here?
A: 0.002 mg/kg

Q: And the “d-amphetamine-induced hyperactivity (horizontal activity counts, % of d-amphetamine alone)” value ([1]; agent 0.0001 to 1 mg/kg s.c.)?
A: dose-dependent decreased

Q: And the “ability to induce catalepsy” value (catalepsy in rats)?
A: lack of ability of the agent to induce significant catalepsy

Q: What about the ED50 ([2]; Rattus norvegicus, 1 h, agent s.c., 60 minutes after drug treatment (time point of greatest reversal), read-out: ED50 (dose producing 50% reduction in maximal response), reversal of haloperidol-induced catalepsy) of the same compound?
A: 0.08 mg/kg

Q: What about the “time spent in catalepsy position” value ([2]; agent 0.003 to 3 mg/kg s.c., 60 minutes after drug treatment) of the same compound?
A: dose-dependent decrease

Q: What about the “MED (minimal effective dose) for reversing haloperidol-induced catalepsy” value ([2]; agent s.c. 60 min later, 60 minutes after drug treatment) of the same compound?
A: 0.3 mg/kg
